Measured values taken from patent US20250214942A1, “INHIBITORS OF RECEPTOR INTERACTING PROTEIN KINASE I FOR THE TREATMENT OF DISEASE” (Board of Regents, The University of Texas System, priority 2019, published 2025).

What was measured:
RIPK1 = RIPK1 (Homo sapiens (Human), UniProt Q13546); test: ADP-Glo kinase assay (RIPK1 activity, conversion of ATP to ADP); assay type: biochemical; conditions: 5 nM RIPK1, 50 μM ATP, 6 h reaction; read-out: RIPK1 Enzyme Avg IC50
How it was run: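 RIPK1 (5 nM final) was preincubated 10 min at rt with 1:3-diluted compounds in HEPES pH 7.5/MgCl2/DTT/BSA/CHAPS buffer. ATP (50 μM final) was then added for 6 h, and ADP formed was read by ADP-Glo luminescence. IC50 values came from four-parameter logistic fitting.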

[1] = system: human monocytic cell line U937; test: Human U937 cellular necroptosis assay (TNFalpha + z-VAD-FMK, Cell Titer-Glo viability); assay type: cell-based; conditions: Homo sapiens, U-937, 22 h, U937 cells, 25 ng/mL human TNFalpha + 25 μM z-VAD-FMK, read-out: hU937 Avg IC50
How it was run: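 Readout is CellTiter-Glo 2.0 luminescence after 22 h at 37° C with compound, in cells triggered by human TNFalpha (25 ng/mL) and z-VAD-FMK (25 μM) in phenol red-free RPMI/10% FBS. Values are run-averaged IC50s from a four-parameter logistic curve.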

Chain of RIPK1 (Q13546 1-327): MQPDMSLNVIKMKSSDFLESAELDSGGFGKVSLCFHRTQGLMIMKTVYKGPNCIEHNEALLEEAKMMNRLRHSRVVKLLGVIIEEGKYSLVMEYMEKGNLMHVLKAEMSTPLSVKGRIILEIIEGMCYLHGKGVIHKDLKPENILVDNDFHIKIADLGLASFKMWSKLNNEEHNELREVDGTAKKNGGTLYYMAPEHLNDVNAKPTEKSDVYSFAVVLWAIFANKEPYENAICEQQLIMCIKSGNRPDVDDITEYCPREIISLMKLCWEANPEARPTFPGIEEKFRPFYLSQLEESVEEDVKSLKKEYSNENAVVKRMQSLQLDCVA

`O=C(N1N=CCC1c1ccccc1)C12CC(Cn3ncc4c(F)cccc43)(C1)C2` (stereo not drawn) [Example 81, (3-((4-fluoro-1H-indazol-1-yl)methyl)bicyclo[1.1.1]-pentan-1-yl)(5-phenyl-4,5-dihydro-1H-pyrazol-1-yl)-methanone] showed an IC50 (RIPK1) of 11 nM and an IC50 [1] of 12 nM.

With `N#Cc1cccc(C2CC=NN2C(=O)C23CC(Cn4ncc5c(F)cccc54)(C2)C3)c1` (stereo not drawn) [Example 82, 3-(1-(3-((4-fluoro-1H-indazol-1-yl)methyl)bicyclo-[1.1.1]pentane-1-carbonyl)-4,5-dihydro-1H-pyrazol-5-yl)benzonitrile] the IC50 (RIPK1) was 11 nM and the IC50 [1] was 31 nM.

`O=C(N1CC(F)CC1c1cccc(F)c1)C12CC(Cn3ncc4c(F)cccc43)(C1)C2` (stereo not drawn) [Example 83, (3-((4-fluoro-1H-indazol-1-yl)methyl)bicyclo[1.1.1]-pentan-1-yl)(4-fluoro-2-(3-fluorophenyl)pyrrolidin-1-yl)methanone] was tested, and the IC50 (RIPK1) was 16 nM and the IC50 [1] was 67 nM.

In the case of `O=C(N1N=CCC1c1cc(F)ccc1F)C12CC(Cn3ncc4c(F)cccc43)(C1)C2` (stereo not drawn) [Example 84, (5-(2,5-difluorophenyl)-4,5-dihydro-1H-pyrazol-1-yl)(3-((4-fluoro-1H-indazol-1-yl)-methyl)bicyclo[1.1.1]pentan-1-yl)methanone], the IC50 (RIPK1) is reported as 22 nM and the IC50 [1] is reported as 3 nM.

`O=C(N1N=CCC1c1cc(F)cc(F)c1)C12CC(Cn3nc4ccc(F)cc4n3)(C1)C2` (stereo not drawn) [Example 85, (5-(3,5-difluorophenyl)-4,5-dihydro-1H-pyrazol-1-yl)(3-((5-fluoro-2H-benzo[d]-[1,2,3]triazol-2-yl)methyl)-bicyclo[1.1.1]pentan-1-yl)-methanone] showed an IC50 (RIPK1) of 18 nM and an IC50 [1] of 24 nM.

With `O=C(N1N=CCC1c1cc(F)cc(F)c1)C12CC(Cn3ncc4ccncc43)(C1)C2` (stereo not drawn) [Example 87, (3-((1H-pyrazolo[3,4-c]-pyridin-1-yl)methyl)bicyclo-[1.1.1]pentan-1-yl)(5-(3,5-difluorophenyl)-4,5-dihydro-1H-pyrazol-1-yl)methanone] the IC50 (RIPK1) was 21 nM and the IC50 [1] was 33 nM.

`O=C(N1N=CCC1c1cc(F)cc(F)c1)C12CC(Cn3cc4ccncc4n3)(C1)C2` (stereo not drawn) [Example 88, (3-((2H-pyrazolo[3,4-c]-pyridin-2-yl)methyl)bicyclo-[1.1.1]pentan-1-yl)(5-(3,5-difluorophenyl)-4,5-dihydro-1H-pyrazol-1-yl)methanone] gave an IC50 (RIPK1) of 24 nM and an IC50 [1] of 94 nM.

`O=C(N1N=CCC1c1cc(F)cc(F)c1)C12CC(Cn3ncc4cccnc43)(C1)C2` (stereo not drawn) [Example 89, (3-((1H-pyrazolo[3,4-b]-pyridin-1-yl)methyl)bicyclo-[1.1.1]pentan-1-yl)(5-(3,5-difluorophenyl)-4,5-dihydro-1H-pyrazol-1-yl)methanone] gave an IC50 (RIPK1) of 25 nM and an IC50 [1] of 137 nM.

For `N#Cc1cc(OCC23CC(C(=O)N4CC(F)CC4c4cccc(F)c4)(C2)C3)ncn1` (stereo not drawn) [Example 92, 6-((3-(4-fluoro-2-(3-fluorophenyl)pyrrolidine-1-carbonyl)bicyclo[1.1.1]-pentan-1-yl)methoxy)-pyrimidine-4-carbonitrile], the IC50 (RIPK1) was 56 nM and the IC50 [1] was 518 nM.

In the case of `Cc1ncnc(OCC23CC(C(=O)N4CC(F)CC4c4cccc(F)c4)(C2)C3)c1F` (stereo not drawn) [Example 93, (4-fluoro-2-(3-fluorophenyl)-pyrrolidin-1-yl)(3-(((5-fluoro-6-methylpyrimidin-4-yl)oxy)methyl)bicyclo[1.1.1]-pentan-1-yl)methanone], the IC50 (RIPK1) is reported as 79 nM and the IC50 [1] is reported as 398 nM.

Molecule `N#Cc1cccc(OCC23CC(C(=O)N4CC(F)CC4c4cccc(F)c4)(C2)C3)n1` (stereo not drawn) [Example 94, 6-((3-(4-fluoro-2-(3-fluoro-phenyl)pyrrolidine-1-carbonyl)bicyclo[1.1.1]-pentan-1-yl)methoxy)-picolinonitrile] has an IC50 (RIPK1) of 109 nM and an IC50 [1] of 994 nM.

Molecule `O=C(N1CC(F)CC1c1cccc(F)c1)C12CC(COc3nccc(Cl)n3)(C1)C2` (stereo not drawn) [Example 101, (3-(((4-chloropyrimidin-2-yl)oxy)methyl)bicyclo[1.1.1]-pentan-1-yl)(4-fluoro-2-(3-fluorophenyl)pyrrolidin-1-yl)methanone] has an IC50 (RIPK1) of 486 nM and an IC50 [1] of 1340 nM.

Work on `O=C(N1CC(F)CC1c1cccc(F)c1)C12CC(Cn3cc4cc(F)ccc4n3)(C1)C2` (stereo not drawn) [Example 106, (4-fluoro-2-(3-fluorophenyl)-pyrrolidin-1-yl)(3-((5-fluoro-2H-indazol-2-yl)methyl)-bicyclo[1.1.1]pentan-1-yl)methanone] yielded an IC50 (RIPK1) of 371 nM and an IC50 [1] of 1470 nM.

`O=C(N1N=CCC1c1cc(F)cc(F)c1)C12CC(Cn3c(=O)[nH]c4ccccc43)(C1)C2` (stereo not drawn) [Example 109, 1-((3-(5-(3,5-difluorophenyl)-4.5-dihydro-1H-pyrazole-1-carbonyl)bicyclo[1.1.1]-pentan-1-yl)methyl)-1,3-dihydro-2H-benzo[d]-imidazol-2-one] was tested, and the IC50 (RIPK1) was 42 nM and the IC50 [1] was 470 nM.

With `Cn1c(=O)n(CC23CC(C(=O)N4N=CCC4c4cc(F)cc(F)c4)(C2)C3)c2ccccc21` (stereo not drawn) [Example 110, 1-((3-(5-(3,5-difluorophenyl)-4,5-dihydro-1H-pyrazole-1-carbonyl)bicyclo[1.1.1]-pentan-1-yl)methyl)-3-methyl-1,3-dihydro-2H-benzo[d]imidazol-2-one] the IC50 (RIPK1) was 134 nM and the IC50 [1] was 734 nM.

For `O=C(N1N=CCC1c1cc(F)cc(F)c1)C12CC(Cn3cc(-c4ccccn4)cn3)(C1)C2` (stereo not drawn) [Example 111, (5-(3,5-difluorophenyl)-4,5-dihydro-1H-pyrazol-1-yl)(3-((4-(pyridin-2-yl)-1H-pyrazol-1-yl)methyl)-bicyclo[1.1.1]pentan-1-yl)methanone], the IC50 (RIPK1) was 43 nM and the IC50 [1] was 249 nM.

`O=C(N1N=CCC1c1cc(F)cc(F)c1)C12CC(Cn3cc(-c4cnccn4)cn3)(C1)C2` (stereo not drawn) [Example 112, (5-(3,5-difluorophenyl)-4,5-dihydro-1H-pyrazol-1-yl)(3-((4-(pyrazin-2-yl)-1H-pyrazol-1-yl)methyl)-bicyclo[1.1.1]pentan-1-yl)-methanone] was tested, and the IC50 (RIPK1) was 73 nM and the IC50 [1] was 285 nM.

`N#Cc1cn(CC23CC(C(=O)N4N=CCC4c4cc(F)cc(F)c4)(C2)C3)cn1` (stereo not drawn) [Example 124, 1-((3-(5-(3,5-difluorophenyl)-4,5-dihydro-1H-pyrazole-1-carbonyl)bicyclo[1.1.1]-pentan-1-yl)methyl)-1H-imidazole-4-carbonitrile] was tested, and the IC50 (RIPK1) was 156 nM and the IC50 [1] was 751 nM.

`N#Cc1cc(OCC23CC(C(=O)N4N=CCC4c4cncc(F)c4)(C2)C3)ncn1` (stereo not drawn) [Example 126, 6-((3-(5-(5-fluoropyridin-3-yl)-4,5-dihydro-1H-pyrazole-1-carbonyl)bicyclo[1.1.1]-pentan-1-yl)-methoxy)pyrimidine-4-carbonitrile] showed an IC50 (RIPK1) of 49 nM and an IC50 [1] of 440 nM.

With `N#Cc1ccc2c(cnn2CC23CC(C(=O)N4N=CCC4c4cncc(F)c4)(C2)C3)c1` (stereo not drawn) [Example 128, 1-((3-(5-(5-fluoropyridin-3-yl)-4,5-dihydro-1H-pyrazole-1-carbonyl)bicyclo[1.1.1]-pentan-1-yl)methyl)-1H-indazole-5-carbonitrile] the IC50 (RIPK1) was 17 nM and the IC50 [1] was 48 nM.

With `Cc1c2cc(C#N)ccc2nn1CC12CC(C(=O)N3N=CCC3c3cncc(F)c3)(C1)C2` (stereo not drawn) [Example 129, 2-((3-(5-(5-fluoropyridin-3-yl)-4,5-dihydro-1H-pyrazole-1-carbonyl)bicyclo[1.1.1]-pentan-1-yl)methyl)-3-methyl-2H-indazole-5-carbonitrile] the IC50 (RIPK1) was 515 nM and the IC50 [1] was 3860 nM.

For `Cc1nn(CC23CC(C(=O)N4N=CCC4c4cncc(F)c4)(C2)C3)c2ccc(C#N)cc12` (stereo not drawn) [Example 130, 1-((3-(5-(5-fluoropyridin-3-yl)-4,5-dihydro-1H-pyrazole-1-carbonyl)bicyclo[1.1.1]-pentan-1-yl)methyl)-3-mcthyl-1H-indazole-5-carbonitrile], the IC50 (RIPK1) was 238 nM and the IC50 [1] was 1240 nM.

`Cc1cnc(C2CC=NN2C(=O)C23CC(Cn4cc(C#N)cn4)(C2)C3)cn1` (stereo not drawn) [Example 131, 1-((3-(5-(5-methylpyrazin-2-yl)-4,5-dihydro-1H-pyrazole-1-carbonyl)bicyclo[1.1.1]-pentan-1-yl)methyl)-1H-pyrazole-4-carbonitrile] showed an IC50 (RIPK1) of 375 nM and an IC50 [1] of 1920 nM.

`Cc1ccc2c(cnn2CC23CC(C(=O)N4N=CCC4c4cncc(F)c4)(C2)C3)n1` (stereo not drawn) [Example 132, (5-(5-fluoropyridin-3-yl)-4,5-dihydro-1H-pyrazol-1-yl)(3-((5-methyl-1H-pyrazolo[4,3-b]pyridin-1-yl)methyl)-bicyclo[1.1.1]pentan-1-yl)methanone] was tested, and the IC50 (RIPK1) was 139 nM and the IC50 [1] was 826 nM.

`O=C(N1N=CCC1c1cc(F)cc(F)c1)C12CC(Cn3ccc4cc(F)ccc43)(C1)C2` (stereo not drawn) [Example 133, (5-(3,5-difluorophenyl)-4,5-dihydro-1H-pyrazol-1-yl)(3-((5-fluoro-1H-indol-1-yl)-methyl)bicyclo[1.1.1]pentan-1-yl)methanone] was tested, and the IC50 (RIPK1) was 20 nM and the IC50 [1] was 10 nM.

For `O=C(N1N=CCC1c1cc(F)cc(F)c1)C12CC(Cn3ccc4ncc(F)cc43)(C1)C2` (stereo not drawn) [Example 134, (5-(3,5-difluorophenyl)-4,5-dihydro-1H-pyrazol-1-yl)(3-((6-fluoro-1H-pyrrolo[3,2-b]-pyridin-1-yl)methyl)-bicyclo[1.1.1]pentan-1-yl)methanone], the IC50 (RIPK1) was 24 nM and the IC50 [1] was 46 nM.

For `O=C(N1N=CCC1c1cc(F)cc(F)c1)C12CC(Cn3ncc4nccnc43)(C1)C2` (stereo not drawn) [Example 135, (3-((1H-pyrazolo[3,4-b]-pyrazin-1-yl)methyl)-bicyclo[1.1.1]pentan-1-yl)(5-(3,5-difluorophenyl)-4,5-dihydro-1H-pyrazol-1-yl)methanone], the IC50 (RIPK1) was 18 nM and the IC50 [1] was 53 nM.
